# In patent US3963756A, “Derivatives of 6-methyl-2H-pyran-2,4(3H)-dione” (Zaidan Hojin Biseibutsu Kagaku Kenkyu Kai, priority 1972, dated 1976):
# How the values were obtained:
# Tyrosine Hydroxylase = target: T1, Tyrosine Hydroxylase (Bos taurus, UniProt P17289); assay: Inhibition of tyrosine hydroxylase (TH); format: biochemical; conditions: for inhibition at 100 µg/mL: 100 mcg/cc; for inhibition at 200 µg/mL: 200 mcg/cc
# T1 sequence (P17289 1-491): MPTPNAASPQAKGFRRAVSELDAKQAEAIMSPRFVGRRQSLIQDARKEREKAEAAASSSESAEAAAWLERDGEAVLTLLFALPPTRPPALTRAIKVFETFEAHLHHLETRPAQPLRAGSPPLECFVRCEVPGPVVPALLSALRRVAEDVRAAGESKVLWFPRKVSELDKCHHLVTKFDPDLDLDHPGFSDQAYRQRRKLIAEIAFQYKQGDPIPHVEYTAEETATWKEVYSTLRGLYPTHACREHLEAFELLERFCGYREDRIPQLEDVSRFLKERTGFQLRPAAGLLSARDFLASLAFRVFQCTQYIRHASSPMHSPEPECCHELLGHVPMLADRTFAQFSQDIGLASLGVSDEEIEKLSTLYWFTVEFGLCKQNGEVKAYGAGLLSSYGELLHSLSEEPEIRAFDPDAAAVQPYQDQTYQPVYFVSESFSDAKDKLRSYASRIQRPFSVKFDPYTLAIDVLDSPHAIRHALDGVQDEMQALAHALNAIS
# Description: (§1) The new compounds of the present invention have been examined for their biological activities, and their inhibition to tyrosine hydroxylase and dopamine β-hydroxylase are summarized below in Table 2. The details of the test methods used and the close relationship and reliable correlation of biological activities between in vitro and in vivo test results are well documented in the literature, e.g. J. Antibiot. 23: 514 (1970); Biochem. Pharmacol., 19: 35 (1970); and J. Am. Chem. Soc. 93: 1285 (1971). […] The effects of this compound on tyrosine hydroxylase and dopamine β-hydroxylase were also tested by the methods described in the Journal of Antibiotics 23:514 (1970) and Biochem. Pharmacol. 19:35 (1970), respectively.
# (§2) The chemical structure of the products [I], solvent for hydrogenation and solvent for recrystallization are summarised in Table 1, and the yields of the products [I] are also shown in Table 1 together with their melting points, elemental analysis data, Inhibition (%) of tyrosine hydroxylase (TH) and Inhibition (%) to dopamine β-hydroxylase (DH) at different concentrations of the products [I] of 100 mcg/cc and 200 mcg/cc.
# Dopamine β-Hydroxylase = target: T2, Dopamine β-Hydroxylase (Bos taurus, UniProt P15101); assay: Inhibition of dopamine β-hydroxylase (DH); format: biochemical; conditions: 200 mcg/cc
# T2 sequence (P15101 1-610): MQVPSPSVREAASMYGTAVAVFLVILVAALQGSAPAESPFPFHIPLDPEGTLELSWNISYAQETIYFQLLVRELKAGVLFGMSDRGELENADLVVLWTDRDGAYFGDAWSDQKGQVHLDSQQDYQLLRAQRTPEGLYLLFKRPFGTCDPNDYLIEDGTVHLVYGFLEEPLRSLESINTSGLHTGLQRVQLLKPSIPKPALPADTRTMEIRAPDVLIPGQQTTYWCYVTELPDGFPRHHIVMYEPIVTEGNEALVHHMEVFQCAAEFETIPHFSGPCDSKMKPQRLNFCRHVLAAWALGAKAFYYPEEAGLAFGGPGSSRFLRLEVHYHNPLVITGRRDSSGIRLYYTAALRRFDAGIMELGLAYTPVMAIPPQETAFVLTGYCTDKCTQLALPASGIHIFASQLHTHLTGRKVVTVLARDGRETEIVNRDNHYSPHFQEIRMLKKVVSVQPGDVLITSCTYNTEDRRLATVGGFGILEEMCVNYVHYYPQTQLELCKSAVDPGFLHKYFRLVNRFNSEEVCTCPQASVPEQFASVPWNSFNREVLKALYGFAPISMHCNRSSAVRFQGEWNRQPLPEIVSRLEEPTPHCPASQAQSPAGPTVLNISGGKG
# Description: as §1, §2
# [1] = Lowering of blood pressure (general statements); set-up: species or system mammals; conditions: in vivo
Structure (SMILES),inhibition at 100 µg/mL (Tyrosine Hydroxylase) [%],inhibition at 200 µg/mL (Dopamine β-Hydroxylase) [%],inhibition at 200 µg/mL (Tyrosine Hydroxylase) [%],"blood pressure reducing (hypotensive) activity, in words [1]"
CC1=CC(=O)C(C(=O)CCc2c(C)cc(C)cc2C)C(=O)O1 (stereo not shown) [Example 23],8.7,28.9,–,–
CC1=CC(=O)C(C(=O)CCc2ccc(Cl)c(Cl)c2)C(=O)O1 (stereo not shown) [Example 6],54.6,90.4,61,–
"CC1=CC(=O)C(C(=O)CCc2ccc(C)cc2)C(=O)O1 (stereo not shown) [Example 29, 3-(4-methylhydrocinnamoyl)-6-methyl-2H-pyran-2,4(3H)-dione]",52.5,85,52.6,–
CC1=CC(=O)C(C(=O)CCc2c(O)ccc3ccccc23)C(=O)O1 (stereo not shown) [Example 37],41.8,44.7,57.2,–
COc1cccc(CCC(=O)C2C(=O)C=C(C)OC2=O)c1 (stereo not shown) [Example 25],32,83.5,34.9,–
CC1=CC(=O)C(C(=O)CCc2ccc(C(N)=O)cc2)C(=O)O1 (stereo not shown) [Example 33],20.5,30.3,–,–
CC1=CC(=O)C(C(=O)CCc2cc(Cl)cc(Cl)c2O)C(=O)O1 (stereo not shown) [Example 34],53.6,82.3,69.3,–
CC1=CC(=O)C(C(=O)CCc2ccc(C(C)C)cc2)C(=O)O1 (stereo not shown) [Example 20],16.8,94.5,25.5,–
"COc1ccc(CCC(=O)C2C(=O)C=C(C)OC2=O)cc1OC (stereo not shown) [3-(3,4-dimethoxyhydrocinnamoyl)-6-methyl-2H-pyran-2,4(3H)-dione, reference compound]",61.3,32.5,72.5,active in reducing blood pressure
CC1=CC(=O)C(C(=O)CCc2ccc(Cl)cc2)C(=O)O1 (stereo not shown) [Example 5],66,84.4,64.8,–
CC1=CC(=O)C(C(=O)CCc2cccc(Br)c2)C(=O)O1 (stereo not shown) [Example 26],11.3,97,19.8,–
"COc1ccc(CCC(=O)C2C(=O)C=C(C)OC2=O)cc1 (stereo not shown) [Example 1, 3-(4-methoxyhydrocinnamoyl)-6-methyl-2H-pyran-2,4(3H)-dione]",40.7,35,47.9,–
COc1ccc(CCC(=O)C2C(=O)C=C(C)OC2=O)c(OC)c1 (stereo not shown) [Example 27],20,44.9,26,–
CC1=CC(=O)C(C(=O)CCc2ccc(Cl)cc2Cl)C(=O)O1 (stereo not shown) [Example 28],29.8,100,29.1,–
CC1=CC(=O)C(C(=O)CCc2ccc(C(F)(F)F)cc2)C(=O)O1 (stereo not shown) [Example 32],50.4,88,–,–
COc1ccccc1CCC(=O)C1C(=O)C=C(C)OC1=O (stereo not shown) [Example 18],32,98.3,–,–
CC1=CC(=O)C(C(=O)CCc2cccs2)C(=O)O1 (stereo not shown) [Example 38],52.3,30.3,–,–
"CC1=CC(=O)C(C(=O)CCc2ccc3c(c2)OCO3)C(=O)O1 (stereo not shown) [Example 3, 3-(3,4-methylenedioxyhydrocinnamoyl)-6-methyl-2H-pyran-2,4(3H)-dione]",13.7,86.7,18.5,–
COc1cccc(CCC(=O)C2C(=O)C=C(C)OC2=O)c1OC (stereo not shown) [Example 21],39,74.7,–,–
CC1=CC(=O)C(C(=O)CCc2ccc(N(C)C)cc2)C(=O)O1 (stereo not shown) [Example 16],23,–,26.1,–

Structure (SMILES),inhibition at 100 µg/mL (Tyrosine Hydroxylase) [%],inhibition at 200 µg/mL (Dopamine β-Hydroxylase) [%],inhibition at 200 µg/mL (Tyrosine Hydroxylase) [%],"blood pressure reducing (hypotensive) activity, in words [1]"
COc1cc(CCC(=O)C2C(=O)C=C(C)OC2=O)ccc1O (stereo not shown) [Example 19],14.6,29.6,26,–
CC1=CC(=O)C(C(=O)CCc2cccc(Cl)c2)C(=O)O1 (stereo not shown) [Example 10],12.7,95,26.5,–
"COc1ccc(CCC(=O)C2C(=O)C=C(C)OC2=O)cc1O (stereo not shown) [Example 2, 3-(3-hydroxy-4-methoxyhydrocinnamoyl)-6-methyl-2H-pyran-2,4(3H)-dione]",80.8,67,93.9,–
CC1=CC(=O)C(C(=O)CCc2ccc(C#N)cc2)C(=O)O1 (stereo not shown) [Example 8],81.4,77.5,84.5,–
CC1=CC(=O)C(C(=O)CCc2cccc(O)c2)C(=O)O1 (stereo not shown) [Example 4],64.7,81.7,67.2,–
"COC(=O)c1ccc(CCC(=O)C2C(=O)C=C(C)OC2=O)cc1 (stereo not shown) [Example 14, 3-(4-methoxycarbonylhydrocinnamoyl)-6-methyl-2H-pyran-2,4(3H)-dione]",13,54.9,15,–
CC1=CC(=O)C(C(=O)CCc2ccc(F)cc2)C(=O)O1 (stereo not shown) [Example 31],60.1,42,–,–
CC1=CC(=O)C(C(=O)CCc2ccc[nH]2)C(=O)O1 (stereo not shown) [Example 39],30.9,25.1,–,–
COc1cc(CCC(=O)C2C(=O)C=C(C)OC2=O)cc(OC)c1O (stereo not shown) [Example 35],45.8,43.6,–,–
CC1=CC(=O)C(C(=O)CCCCc2ccccc2)C(=O)O1 (stereo not shown) [Example 12],33.7,85.8,–,–
CC1=CC(=O)C(C(=O)CCc2ccccc2O)C(=O)O1 (stereo not shown) [Example 13],44.4,52.5,59.5,–
CCOc1ccc(CCC(=O)C2C(=O)C=C(C)OC2=O)cc1 (stereo not shown) [Example 11],–,6,10.1,–
COc1cccc(CCC(=O)C2C(=O)C=C(C)OC2=O)c1O (stereo not shown) [Example 15],20.9,–,29.9,–
CC1=CC(=O)C(C(=O)CCc2ccc(O)cc2)C(=O)O1 (stereo not shown) [Example 7],65.2,77.7,70.6,–
CC1=CC(=O)C(C(=O)CCc2cccc3ccccc23)C(=O)O1 (stereo not shown) [Example 36],34.8,56.2,–,–
CCOc1cc(CCC(=O)C2C(=O)C=C(C)OC2=O)ccc1O (stereo not shown) [Example 22],22.7,61.5,24.4,–
"CC1=CC(=O)C(C(=O)CCc2ccco2)C(=O)O1 (stereo not shown) [Example 24, 3-[3-(2-furyl)propanoyl]-6-methyl-2H-pyran-2,4(3H)-dione]",44.7,60.3,45.5,–
CC1=CC(=O)C(C(=O)CCc2ccc(O)c(O)c2)C(=O)O1 (stereo not shown) [Example 9],80.6,20.6,93.5,–
CC1=CC(=O)C(C(=O)CCc2ccc(C)o2)C(=O)O1 (stereo not shown) [Example 30],23.5,100,–,–
CC1=CC(=O)C(C(=O)CCc2ccccc2Cl)C(=O)O1 (stereo not shown) [Example 17],37.1,89.8,48.4,–
